Results taken from paper PMC7997579, “Synthetic Lethality in Pancreatic Cancer: Discovery of a New RAD51-BRCA2 Small Molecule Disruptor That Inhibits Homologous Recombination and Synergizes with Olaparib” (Journal of Medicinal Chemistry, 2020).
In brackets after ≈: the same amount, converted by molar mass. Where two headings read alike, the source gives them in different places.

Legend:
[1] = target: T1, BRC4–RAD51 interaction (Homo sapiens, UniProt Q06609); test: Competitive biochemical ELISA assay (biotinylated BRC4 peptide vs RAD51); type: binding
T1 construct: purchased Creative Biomart (RAD51); Life Technologies (BRC4 peptide)
T1 sequence (Q06609 1-339): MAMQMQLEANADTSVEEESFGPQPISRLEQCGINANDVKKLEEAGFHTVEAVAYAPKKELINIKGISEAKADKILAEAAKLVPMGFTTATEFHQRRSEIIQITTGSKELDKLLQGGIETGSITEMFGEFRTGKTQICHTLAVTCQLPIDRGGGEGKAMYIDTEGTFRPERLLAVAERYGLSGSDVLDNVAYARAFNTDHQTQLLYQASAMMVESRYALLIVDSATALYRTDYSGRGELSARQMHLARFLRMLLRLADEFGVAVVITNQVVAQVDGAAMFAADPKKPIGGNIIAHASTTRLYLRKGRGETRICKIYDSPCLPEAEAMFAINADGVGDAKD
In short: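 Plates coated with N-terminally biotinylated BRC4 peptide were blocked (1% BSA/PBST) and hybridised overnight with human RAD51. Compounds were tested from 0.01 to 100 μM in triplicate (1% DMSO); bound RAD51 was detected by anti-RAD51 and HRP-secondary antibodies with TMB colorimetric read-out.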

[2] = system: homologous recombination in BxPC3 cells; test: Homologous recombination assay (two-plasmid recombination, real-time PCR); type: cell-based, human; conditions: Homo sapiens, BXPC-3
[3] = system: BxPC3 cells; test: Cell viability assay (CellTiter-Glo), association with olaparib; type: cell-based, human
Text: Our working hypothesis is that compounds disrupting RAD51-BRCA2 interaction should affect HR repair and increase the efficacy of PARPi in treating breast, ovarian, and pancreatic cancer. For its clinical relevance, pancreatic adenocarcinoma was selected as our final model for cell-based experiments, and BxPC3 cells were selected for a straightforward comparison with the previously reported triazole derivatives.[30],[31] BxPC3 is derived from a human adenocarcinoma that expresses fully functional BRCA2.[38] As shown in Table 2 and according to the rationale of our hypothesis, our preliminary screening consisted of verifying the efficacy of compounds in inhibiting cell HR and/or in increasing the antiproliferative effect of olaparib. […] HR activity was assessed by evaluating the recombination rate between two transfected plasmids, using a commercially available assay. […] As for the emissucinic acid-containing compounds (4d, 12d, 18d, 20d–23d, 30d, 31d), one of the reasons for their lower potency in cells might be the general poor permeability, likely related to the ionizable acid moiety. […] We then characterized 35d in additional biophysical and cell-based experiments.
Cell viability was assessed with the CellTiter-Glo luminescent cell viability assay from Promega. For this experiment, 1 × 10^4 cells in 200 μL of culture medium were seeded into each well of a 96-multiwell white body plate and allowed to adhere overnight. After 72 h incubation in the presence of olaparib (10 μM) and the RAD51-BRCA2 disruptors alone or in combination, the plate was allowed to equilibrate at room temperature for 30 min and the CellTiter-Glo reactive was directly added to each well. The plate was kept on a shaker for 10 min to induce cell lysis, and its luminescence was measured with a Fluoroskan Ascent FL reader (Labsystems).

[4] = Solubility (as observed in cell culture media / stated); type: physicochemical

CCC(=O)N1N=C(c2c(-c3ccccc3)c3cc(Cl)ccc3[nH]c2=O)CC1c1ccc(OC)cc1 (stereo not shown) [Compound 35d, 6-Chloro-3-(5-(4-methoxyphenyl)-1-propionyl-4,5-dihydro-1H-pyrazol-3-yl)-4-phenylquinolin-2(1H)-one]
EC50 ([1]; Table 2, compounds selected for cell-based study, read-out: EC50 ELISA): 19 ± 1 µM
EC50 ([1]; competition with BRC4 for RAD51, triplicate, ± standard deviation, NA = not active, racemic mixtures unless enantiomer named, read-out: EC50 (μM) on ELISA assay): 19 ± 1 µM
inhibition at 10 µM ([2]; 10 μM, BxPC3, 5 h during plasmid transfection): ~10%
inhibition at 20 µM ([2]; 20 μM, BxPC3, 5 h during plasmid transfection): 54%
EC50 ([2]; BxPC3, 5 h, tested up to 40 μM, polynomial regression, read-out: EC50 (dose causing a 50% inhibition of HR)): 18.4 µM
combination index (CI) with olaparib ([3]; BxPC3, 10 μM 35d + 10 μM olaparib): ~1
olaparib association ([3]; BxPC3, at 15 μM): olaparib association = present at 15 μM
combination index (CI) with olaparib ([3]; BxPC-3, 20 μM 35d + 10 μM olaparib, CI < 0.8 = synergism): < 0.8
solubility ([4]; HR assay medium (RPMI, 0.6% DMSO), kinetic from dmso stock, read-out: upper limit in terms of solubility): 40 µM (≈ 19.4 µg/mL)
solubility ([4]; stated in conclusions): low solubility
